Results published in patent US20240196663A1, “DISPLAY APPARATUS, DISPLAY MODULE, AND ELECTRONIC DEVICE” (SEMICONDUCTOR ENERGY LABORATORY CO., LTD., priority 2022, published 2024).

Test: physchem

SMILES	pKa
c1cnc2c(c1)ccc1cccnc12 [phenanthroline, reference compound]	4.8
c1cc(N2CCCC2)c2ccc3c(N4CCCC4)ccnc3c2n1 [Pyrrd-Phen, 4,7-di-1-pyrrolidinyl-1,10-phenanthroline]	11.2
c1cnccn1 [pyrazine, reference compound]	0.37
c1cc(N2CCCn3ccnc32)nc(N2CCCn3ccnc32)c1 [2,6tip2Py, 8,8′-pyridine-2,6-diyl-bis(5,6,7,8-tetrahydroimidazo[1,2-a]pyrimidine)]	9.58

Second part, the compound after the results:

pKa	SMILES
0.6	c1cc(-c2ccc3oc4c(-c5cccc(-c6cccc7c6sc6ccccc67)c5)ncnc4c3c2)cc(-c2cccc3c2sc2ccccc23)c1 [4,8mDBtP2Bfpm, 4,8-bis[3-(dibenzothiophen-4-yl)phenyl]-[1]benzofuro[3,2-d]pyrimidine]
13.9	c1ccc2c(c1)-c1ccccc1C21c2ccccc2-c2ccc(N3CCCN4CCCN=C43)cc21 [2hppSF, 1-(9,9′-spirobi[9H-fluoren]-2-yl)-1,3,4,6,7,8-hexahydro-2H-pyrimido[1,2-a]pyrimidine]
13.3	c1cc2ccc3ccc(N4CCCN5CCCN=C54)nc3c2nc1N1CCCN2CCCN=C21 [2,9hpp2Phen, 2,9-bis(1,3,4,6,7,8-hexahydro-2H-pyrimido[1,2-a]pyrimidin-1-yl)-1,10-phenanthroline]
